# What was measured:
# [1] = In vitro penetration rate across human skin in modified Franz cells; assay type: in vitro ADME; conditions: 3% suspension in ethanol/pH 7.4 phosphate buffer (0.2 M) 70/30
# Description: Penetration rates of HPPs and their parent drugs through human skin were measured in vitro by modified Franz cells. A Franz cell had two chambers, the top sample chamber and the bottom receiving chamber. The human skin tissue (360-400 μm thick) that separated the top and the receiving chambers was isolated from the anterior or posterior thigh areas.
# A compound tested (0.5 mL, 3% in a mixture of ethanol and phosphate buffer (0.2M, pH 7.4) (v/v, 70/30)) was added to the sample chamber of a Franz cell. The receiving chamber contains 2 ml of 2% bovine serum albumin in saline which was stirred at 600 rpm. The amount of the tested compound penetrating the skin was determined by high-performance liquid chromatography (HPLC) method.
# The lowest detectable apparent flux values in this method was 1 μg/cm^2/h.
# interferon production [2] = assay: Interferon inducing activity in guinea pigs (serum protection of fibroblasts from mengovirus); assay type: in vivo; conditions: serum 18 hours after treatment
# Description: Without being bound by any mechanism, the ability to induce interferon production of the pro-drugs of the invention was evaluated in guinea pigs (n=10). Untreated guinea pigs provided controls.
# Each test drug was administered to real back skin of a guinea pig at a specific dose of about 0.5-4.5 mg/kg respectively.
# Each treated and control guinea pig was bled 18 hours after drug treatment and its serum was assayed for interferon activity. The serum was diluted and incubated with guinea pig fibroblast cells at 37° C. overnight in 96 well microtiter plates. The incubated cells were then challenged with an inoculum of mengovirus that was sufficient to kill untreated cells in two days. Two days after such challenge, the cells were examined both microscopically and after staining with crystal violet to determine whether the cells remained intact.
# Table 4 contains the results of the study with activity/ml indicating the highest dilute on of serum that protected cells from virus challenge. Untreated guinea pigs provided controls.
# [3] = test system: herpes simplex virus Type II; assay: Anti-Herpes activity, treated for 3 days before HSV infection; assay type: in vivo; conditions: guinea pigs
# Description: (§1) The evaluation of anti-Herpes activity of these prodrugs was carried out using the method described by Kern, et al. [Antimicrob. Agents Chemother. 14, 817, (1978)]. In each experiment, female guinea pigs (n=10) were anesthetized. […] Virus replication was monitored by determining the amount of virus recovered with vaginal swabs taken on day 7 after infection. […] The percent Lesion Inhibition was calculated as follows: 100-[(Sum of maximum lesion scores of treated group divided by the Sum of the scores of infected control)×100] (Table 5).
# [4] = test system: herpes simplex virus Type I; assay: as above; assay type: in vivo; conditions: guinea pigs
# Description: as §1
# [5] = test system: herpes simplex virus Type II; assay: Anti-Herpes activity, treated for 5 days, first treatment just after HSV infection; assay type: in vivo; conditions: guinea pigs
# Description: (§2) The evaluation of anti-Herpes activity of these prodrugs was carried out using the method described by Kern, et al. [Antimicrob. Agents Chemother. 14, 817, (1978)].
# (§3) In the second experiment, female guinea pigs (n=10) were anesthetized. Herpes simplex virus (Type I or Type II, about 10^5 plaque forming units were used) was applied intravaginally to the guinea pigs using a cotton swab. […] Virus replication was monitored by determining the amount of virus recovered with vaginal swabs taken on day 7 after infection. External lesions were scored daily for ten days using the following scale: 0, no lesion; 1, redness and swelling; 2, a few small vesicles; 3, several large vesicles; 4, large ulcers and necrosis; and 5, paralysis. The percent Lesion Inhibition was calculated as follows: 100−[(Sum of maximum lesion scores of treated group divided by the Sum of the scores of infected control)×100] (Table 6).
# [6] = test system: herpes simplex virus Type I; assay: as above; assay type: in vivo; conditions: guinea pigs
# Description: as §2, §3
# [7] = test system: herpes simplex virus Type II; assay: Anti-Herpes activity, treated for 5 days, first treatment 5 days after HSV infection; assay type: in vivo; conditions: guinea pigs
# Description: as §2
# (§4) In the third experiment, female guinea pigs (n=10) were anesthetized. The guinea pigs were then infected with herpes simplex virus (type I or Type II, about 10^5 plaque forming units were used) intravaginally using a cotton swab. […] External lesions were scored daily for ten days using the following scale: 0, no lesion; 1, redness and swelling; 2, a few small vesicles; 3, several large vesicles; 4, large ulcers and necrosis; and 5, paralysis. The percent Lesion Inhibition was calculated as follows: 100−[(Sum of maximum lesion scores of treated group divided by the Sum of the scores of infected control)×100] (Table 7).
# [8] = test system: herpes simplex virus Type I; assay: as above; assay type: in vivo; conditions: guinea pigs
# Description: as §2, §4
# interferon production [9] = assay: Interferon inducing activity in guinea pigs (serum protection of fibroblasts from mengovirus); assay type: in vivo; conditions: serum 18 hours after treatment; remark: listed apart in the source
# [10] = 0.5 mg/kg once per day for 3 days before HSV infection
# [11] = 1.5 mg/kg once per day for 3 days before HSV infection
# [12] = 4.5 mg/kg once per day for 3 days before HSV infection
# [13] = 0.5 mg/kg once per day for 5 days
# [14] = 1.5 mg/kg once per day for 5 days
# [15] = 4.5 mg/kg once per day for 5 days
smiles,measurement,setting,value
"CCCCn1cnc2c(N)nc3ccccc3c21.Cl [1-butyl-1H-imidazo[4,5-c]quinolin-4-amine hydrochloride, reference compound]",In vitro Penetration Rate of Parent compounds (apparent flux),[1],0.005 mg/cm^2/h
"Cl.Nc1nc2ccccc2c2c1ncn2Cc1ccccc1 [1-benzyl-1H-imidazo[4,5-c]quinolin-4-amine hydrochloride, reference compound]",In vitro Penetration Rate of Parent compounds (apparent flux),[1],0.005 mg/cm^2/h
"CCCCCCn1cnc2c(NC(=O)CN(C)C)nc3ccccc3c21.Cl [N,N-dimethylglycine 1-n-hexyl-1H-imidazo[4,5-c]quinolin-4-amide hydrochloride]","Interferon level of the HPP, transdermal",interferon production [2]; 0.5 mg/kg once,"11,756 activity/ml"
same,"Interferon level of the HPP, transdermal",interferon production [2]; 1.5 mg/kg once,"22,537 activity/ml"
same,"Interferon level of the HPP, transdermal",interferon production [2]; 4.5 mg/kg once,"61,758 activity/ml"
same,"% Lesion inhibition of the HPP, intravaginal, Herpes type II",[3]; [10],68%
same,"% Lesion inhibition of the HPP, transdermal, Herpes type II",[3]; [10],40%
same,"% Lesion inhibition of the HPP, intravaginal, Herpes type II",[3]; [11],90%
same,"% Lesion inhibition of the HPP, transdermal, Herpes type II",[3]; [11],68%
same,"% Lesion inhibition of the HPP, intravaginal, Herpes type II",[3]; [12],95%
same,"% Lesion inhibition of the HPP, transdermal, Herpes type II",[3]; [12],93%
same,"% Lesion inhibition of the HPP, intravaginal, Herpes type I",[4]; [10],67%
same,"% Lesion inhibition of the HPP, transdermal, Herpes type I",[4]; [10],38%
same,"% Lesion inhibition of the HPP, intravaginal, Herpes type I",[4]; [11],91%
same,"% Lesion inhibition of the HPP, transdermal, Herpes type I",[4]; [11],67%
same,"% Lesion inhibition of the HPP, intravaginal, Herpes type I",[4]; [12],95%
same,"% Lesion inhibition of the HPP, transdermal, Herpes type I",[4]; [12],91%
same,"% Lesion inhibition of the HPP, intravaginal, Herpes type II",[5]; [13],68%
same,"% Lesion inhibition of the HPP, transdermal, Herpes type II",[5]; [13],38%
same,"% Lesion inhibition of the HPP, intravaginal, Herpes type II",[5]; [14],90%
same,"% Lesion inhibition of the HPP, transdermal, Herpes type II",[5]; [14],75%
same,"% Lesion inhibition of the HPP, intravaginal, Herpes type II",[5]; [15],95%
same,"% Lesion inhibition of the HPP, transdermal, Herpes type II",[5]; [15],91%
same,"% Lesion inhibition of the HPP, intravaginal, Herpes type I",[6]; [13],67%
same,"% Lesion inhibition of the HPP, transdermal, Herpes type I",[6]; [13],37%
same,"% Lesion inhibition of the HPP, intravaginal, Herpes type I",[6]; [14],91%
same,"% Lesion inhibition of the HPP, transdermal, Herpes type I",[6]; [14],73%
same,"% Lesion inhibition of the HPP, intravaginal, Herpes type I",[6]; [15],95%
same,"% Lesion inhibition of the HPP, transdermal, Herpes type I",[6]; [15],90%
same,"% Lesion inhibition of the HPP, intravaginal, Herpes type II",[7]; [13],28%
same,"% Lesion inhibition of the HPP, transdermal, Herpes type II",[7]; [13],25%
same,"% Lesion inhibition of the HPP, intravaginal, Herpes type II",[7]; [14],65%
same,"% Lesion inhibition of the HPP, transdermal, Herpes type II",[7]; [14],55%
same,"% Lesion inhibition of the HPP, intravaginal, Herpes type II",[7]; [15],85%
same,"% Lesion inhibition of the HPP, transdermal, Herpes type II",[7]; [15],81%
same,"% Lesion inhibition of the HPP, intravaginal, Herpes type I",[8]; [13],31%
same,"% Lesion inhibition of the HPP, transdermal, Herpes type I",[8]; [13],28%
same,"% Lesion inhibition of the HPP, intravaginal, Herpes type I",[8]; [14],62%
same,"% Lesion inhibition of the HPP, transdermal, Herpes type I",[8]; [14],52%
same,"% Lesion inhibition of the HPP, intravaginal, Herpes type I",[8]; [15],83%
same,"% Lesion inhibition of the HPP, transdermal, Herpes type I",[8]; [15],82%
same,"Interferon level of the HPP, intravaginal",interferon production [9]; 0.5 mg/kg once,"21,857 activity/ml"
same,"Interferon level of the HPP, intravaginal",interferon production [9]; 1.5 mg/kg once,"57,147 activity/ml"
same,"Interferon level of the HPP, intravaginal",interferon production [9]; 4.5 mg/kg once,"78,569 activity/ml"
"CCCCCCn1cnc2c(N)nc3ccccc3c21.Cl [1-hexyl-1H-imidazo[4,5-c]quinolin-4-amine hydrochloride, reference compound]","% Lesion inhibition of the parent drug, intravaginal, Herpes type II",[3]; [10],5%
same,"% Lesion inhibition of the parent drug, transdermal, Herpes type II",[3]; [10],2%
same,"% Lesion inhibition of the parent drug, intravaginal, Herpes type II",[3]; [11],18%
same,"% Lesion inhibition of the parent drug, transdermal, Herpes type II",[3]; [11],3%
same,"% Lesion inhibition of the parent drug, intravaginal, Herpes type II",[3]; [12],81%
same,"% Lesion inhibition of the parent drug, transdermal, Herpes type II",[3]; [12],45%
same,"% Lesion inhibition of the parent drug, intravaginal, Herpes type I",[4]; [10],4%
same,"% Lesion inhibition of the parent drug, transdermal, Herpes type I",[4]; [10],2%
same,"% Lesion inhibition of the parent drug, intravaginal, Herpes type I",[4]; [11],16%
same,"% Lesion inhibition of the parent drug, transdermal, Herpes type I",[4]; [11],3%
same,"% Lesion inhibition of the parent drug, intravaginal, Herpes type I",[4]; [12],80%
same,"% Lesion inhibition of the parent drug, transdermal, Herpes type I",[4]; [12],42%
same,"% Lesion inhibition of the parent drug, intravaginal, Herpes type II",[5]; [13],2%
same,"% Lesion inhibition of the parent drug, transdermal, Herpes type II",[5]; [13],2%
same,"% Lesion inhibition of the parent drug, intravaginal, Herpes type II",[5]; [14],11%
same,"% Lesion inhibition of the parent drug, transdermal, Herpes type II",[5]; [14],6%
same,"% Lesion inhibition of the parent drug, intravaginal, Herpes type II",[5]; [15],71%
same,"% Lesion inhibition of the parent drug, transdermal, Herpes type II",[5]; [15],41%
same,"% Lesion inhibition of the parent drug, intravaginal, Herpes type I",[6]; [13],2%
same,"% Lesion inhibition of the parent drug, transdermal, Herpes type I",[6]; [13],2%
same,"% Lesion inhibition of the parent drug, intravaginal, Herpes type I",[6]; [14],11%
same,"% Lesion inhibition of the parent drug, transdermal, Herpes type I",[6]; [14],5%
same,"% Lesion inhibition of the parent drug, intravaginal, Herpes type I",[6]; [15],68%
same,"% Lesion inhibition of the parent drug, transdermal, Herpes type I",[6]; [15],43%
same,"% Lesion inhibition of the parent drug, intravaginal, Herpes type II",[7]; [13],2%
same,"% Lesion inhibition of the parent drug, transdermal, Herpes type II",[7]; [13],2%
same,"% Lesion inhibition of the parent drug, intravaginal, Herpes type II",[7]; [14],2%
same,"% Lesion inhibition of the parent drug, transdermal, Herpes type II",[7]; [14],2%
same,"% Lesion inhibition of the parent drug, intravaginal, Herpes type II",[7]; [15],37%
same,"% Lesion inhibition of the parent drug, transdermal, Herpes type II",[7]; [15],21%
same,"% Lesion inhibition of the parent drug, intravaginal, Herpes type I",[8]; [13],2%
same,"% Lesion inhibition of the parent drug, transdermal, Herpes type I",[8]; [13],2%
same,"% Lesion inhibition of the parent drug, intravaginal, Herpes type I",[8]; [14],2%
same,"% Lesion inhibition of the parent drug, transdermal, Herpes type I",[8]; [14],2%
same,"% Lesion inhibition of the parent drug, intravaginal, Herpes type I",[8]; [15],35%
same,"% Lesion inhibition of the parent drug, transdermal, Herpes type I",[8]; [15],18%
same,"Interferon level of the parent drug, intravaginal",interferon production [9]; 0.5 mg/kg once,286 activity/ml
same,"Interferon level of the parent drug, transdermal",interferon production [9]; 0.5 mg/kg once,178 activity/ml
same,"Interferon level of the parent drug, intravaginal",interferon production [9]; 1.5 mg/kg once,"1,562 activity/ml"
same,"Interferon level of the parent drug, transdermal",interferon production [9]; 1.5 mg/kg once,565 activity/ml
same,"Interferon level of the parent drug, intravaginal",interferon production [9]; 4.5 mg/kg once,"24,786 activity/ml"
same,"Interferon level of the parent drug, transdermal",interferon production [9]; 4.5 mg/kg once,"1,945 activity/ml"

# — patent US9567329B2, “High penetration prodrug compositions of 1H-imidazo[4,5-c]quinolin-4-amines and 1H-imidazo[4,5-c]quinolin-4-amine-related compounds and uses thereof” (Techfields Pharma Co., Ltd, priority 2007, dated 2017)
